Test results published in article PMC11815855, “Exploring the Structure–Activity Relationships of Albumin-Targeted Picoplatin-Based Platinum(IV) Prodrugs” (Inorganic Chemistry, 2025).
Marks after values point to notes of the source that are not given here.

Key:
[1] = Hydrolytic stability of platinum(IV)-succinimide complexes in PB without AA, UHPLC; type: physicochemical; conditions: 1 mM, 150 mM PB pH 7.4, 20 °C
Procedure: (§1) Platinum(IV) prodrugs need to be reduced in the tumor environment to release the cytotoxic platinum(II) complexes. Thus, the reduction properties of Pico-Succ, PicoCarbo-Succ, and PicoOxali-Succ were investigated. As mentioned above, succinimide complexes were used for these studies to avoid competitive hydrolysis of the maleimide moiety. All platinum(IV)-succinimide complexes were incubated in both the absence and presence of a 10-fold excess L-ascorbic acid (AA) in PB at pH 7.4 and 20 °C over 6 h. The amount of remaining intact platinum(IV) complex at given time points was measured via ultrahigh performance liquid chromatography (UHPLC), as shown in Figure 2. Pico-Succ was reduced extremely fast, with only traces of the original complex left in the first measurement after ∼5 min of incubation. Even with equimolar amounts of AA, 90% of Pico-Succ was already reduced after ∼5 min (Figure S6). This level of reductive instability is exceptionally high, even when compared to the “fast” reducing cisplatin(IV) prodrugs, which show a complete conversion after ∼10 h in the presence of 10 equiv AA.[41],[53]
PB (150 mM, pH 7.4) containing 1 mM Pt compound was incubated at 20 °C with and without the addition of 10 equiv L-ascorbic acid or reduced GSH. The reaction was monitored on a Thermo Scientific Dionex UltiMate 3000 UHPLC-system using a Waters Acquity UPLC BEH C18 1.7 μm, 3.0 × 50 mm column. […]

[2] = test system: CT26 colon cancer cells; assay: MTT-based cell viability assay, CT26, 72 h; parameters: species or system murine; conditions: 72 h drug exposure
Excerpt: (§2) For the cell culture assays, the human ovarian model A2780/wt and its corresponding cisplatin-resistant subline A2780/cis (both purchased from Sigma and cultured in RPMI1640 medium), the human colorectal cancer model HCT116 (cultured in McCoy′s medium), and the murine (Balb/c) colorectal cancer model CT26 (cultured in DMEM/F-12 (1:1) medium) were used. The colon cancer models were purchased from the American Type Culture Collection (ATCC). The media were supplemented with 10% FCS (purchased from PAA Linz, Austria). To maintain drug resistance of A2780/cis, the subline was cultivated under continuous selection pressure (1 μM cisplatin). The selection drug was removed 1 week before the experiments were performed. Cell cultures were maintained at 37 °C in humidified atmosphere containing 5% CO2. All cultures were free of antibiotics and regularly checked for mycoplasma contamination. All cell culture media and reagents were purchased from Sigma-Aldrich Austria. All investigated drugs were dissolved in either water (oxaliplatin, carboplatin) or DMF before further dilution in cell culture medium. DMF concentrations were always below 0.5%.
(§3) Subsequently, the cells were incubated with the tested compounds in rising concentrations. […] The received data were visualized as dose–response curves by Graph Pad Prism 5 software (Graph Pad software, USA).

[3] = Reduction of platinum(IV)-succinimide complexes with 10 equiv GSH, UHPLC; type: physicochemical; conditions: 1 mM, 150 mM PB pH 7.4, 20 °C, 5 min
Excerpt: It is well-known that platinum(IV) complexes derived from, e.g., oxaliplatin or carboplatin, bearing leaving groups other than chlorido ligands, have distinctly slower reduction rates compared to cisplatin(IV) analogs.[54] This can be explained by a bridging interaction between the chlorido ligands and the reducing agent, which facilitates electron transfer to the platinum center.[55] […] The reductive behavior was also investigated in the presence of 10 equiv GSH in coherence with the above investigated interactions of platinum(II) with GSH (Figure S8).
(§4) PB (150 mM, pH 7.4) containing 1 mM Pt compound was incubated at 20 °C with and without the addition of 10 equiv L-ascorbic acid or reduced GSH. The reaction was monitored on a Thermo Scientific Dionex UltiMate 3000 UHPLC-system using a Waters Acquity UPLC BEH C18 1.7 μm, 3.0 × 50 mm column. Milli-Q water containing 0.1% formic acid and acetonitrile containing 0.1% formic acid were used as eluents. A gradient of 5–95% over 5 min was used with a flow of 0.6 mL/min. To evaluate the reaction process, we used the peak area of the parental complex.

[4] = test system: HCT116 colon cancer cells; assay: MTT-based cell viability assay, HCT116, 72 h; parameters: species or system human; conditions: 72 h drug exposure
Excerpt: as §2, §3

[5] = Reduction with 10 equiv AA at pH 6.0 and 37 °C, UHPLC; type: physicochemical; conditions: 700 μM, 50 mM PB pH 6.0, 37 °C
Excerpt: (§5) To explain the rather unusual in vivo findings, especially with respect to Pico-Mal, we hypothesized that inefficient reductive release of the platinum(II) core from albumin due to steric hindrance of the 2-picoline could provide a plausible explanation for the lack of antitumor activity despite a favorable pharmacokinetic profile. […] To gain insights into whether the molecular weight and thus steric demands of the reducing agent impact the reduction of picoplatin(IV) derivatives, Pico-Succ and the reference complex Cis-Succ were analyzed in the presence of cytochrome C (CytC; ∼12,000 g/mol) or AA (176 g/mol). Therefore, Pico-Succ and Cis-Succ (for synthesis and ^1H NMR characterization, see experimental part and Scheme S1) were coincubated at pH 6.0 with 0.1 equiv CytC[60] and 10 equiv reduced NADH or with 10 equiv AA at 37 °C over 4 h, and the reduction kinetics were compared relatively. The amount of remaining intact platinum(IV) complex at given time points was measured via UHPLC (Figure 6). […]
(§6) PB (50 mM, pH 6.0) containing 700 μM Pt compound was incubated at 37 °C with the addition of 0.1 equiv horse heart CytC and 10 equiv reduced NADH or with 10 equiv L-ascorbic acid. The reaction was monitored on a Thermo Scientific Dionex UltiMate 3000 UHPLC-system using a Waters Acquity UPLC BEH peptide C18 1.7 μm 2.1 × 100 mm column. […]

[6] = Reduction kinetics of platinum(IV)-succinimide complexes with AA, UHPLC; type: physicochemical; conditions: 1 mM, 150 mM PB pH 7.4, 20 °C
Procedure: as §1, §4

[7] = test system: A2780/wt ovarian cancer cells; assay: MTT-based cell viability assay, A2780/wt, 72 h; parameters: species or system human; conditions: 72 h drug exposure, means of independent experiments
Excerpt: as §2, §3

[8] = test system: CT26 colon cancer cells; assay: Colony formation (clonogenic) assay, CT26, 7 days; type: cell-based, murine; conditions: 7 days drug exposure
Excerpt: as §2
(§7) Then, cells were exposed to the indicated drugs in rising concentrations. After 7 days, the cells were fixed with methanol for 20 min at 4 °C and stained with crystal violet 5 (0.01% in PBS). The fluorescence of the crystal violet was detected by the Typhoon scanner (Typhoon TRIO Variable Mode Imager, GE Healthcare Life Sciences) after excitation by the red laser (633 nm). Quantification was done with ImageJ software.

[9] = target: albumin (Bos taurus, UniProt P02769); assay: Albumin binding and stability in phosphate-buffered FCS, SEC-ICP-MS; conditions: 50 μM in FCS (150 mM PB, pH 7.4), 37 °C, 1 h
Procedure: FCS was purchased from Sigma-Aldrich and buffered with 150 mM phosphate pH 7.4 in order to guarantee a stable pH. The platinum(IV) complexes were dissolved in 150 mM PB (pH 7.4) at a concentration of 5 mM and diluted 1:100 in buffered serum to obtain a final concentration of 50 μM. […] Between each sample, a pure water blank was measured. […] Oxygen (purity 5.5, Messer Austria GmbH, Gumpoldskirchen, Austria) was used as the reaction gas.

[10] = test system: A2780/cis ovarian cancer cells; assay: MTT-based cell viability assay, A2780/cis (cisplatin-resistant), 72 h; parameters: species or system human; conditions: for IC50: 72 h drug exposure, cisplatin-resistant subline, means of independent experiments; for IC50 / IC50 in A2780/cis compared to A2780/wt: MTT-based assay; for RF (resistance factor): fold-change between IC50 values of A2780/cis:A2780/wt; for RF (resistance factor) / IC50 in A2780/cis compared to A2780/wt: 72 h
Excerpt: as §2, §3

[11] = target: T1, horse heart CytC (Equus caballus, UniProt P00004); assay: Reduction with cytochrome C and NADH, UHPLC; type: biochemical; conditions: 700 μM, 0.1 equiv CytC and 10 equiv NADH, 50 mM PB pH 6.0, 37 °C
T1 construct: 0.1 equiv horse heart CytC; from tissue; host or cells: horse heart
Excerpt: as §5, §6

[12] = test system: HCT116 colon cancer cells; assay: Colony formation (clonogenic) assay, HCT116, 7 days; type: cell-based, human; conditions: for IC50: 7 days drug exposure, clonogenic assay
Excerpt: as §2, §7

[13] = Interaction of platinum(II) complexes with 10 equiv GSH, NMR; type: physicochemical; conditions: 1 mM complex, 10% D2O/90% PBS pH 7.4, 37 °C, 8 h, 1H NMR
Procedure: The amount of remaining platinum(II) complex was monitored via ^1H NMR spectroscopy and, particularly for ^15N-cisplatin, via [^1H, ^15N] heteronuclear single quantum coherence (HSQC) NMR spectroscopy (Figure 1).[47]
(§8) An 1 mM solution of Pt compound was incubated in a mixture of 90% PB or PBS (150 mM, pH 7.4) and 10% D2O at 37 °C with and without the addition of 10 equiv GSH. The reaction was monitored with ^1H or [^1H, ^15N] […] The reference spectrum was shifted with a value of −0.5 ppm compared to the original ppm value calibrated to D2O before overlay with a spectrum at a single time point. In case of ^15N-cisplatin, the cross-peak of the parental complex in [^1H, ^15N] HSQC at time point 0 h was used as reference, and spectral overlay was achieved by shifting the 2D spectra at all given time points (2, 4, 6, and 8 h) with vertical steps of +14 ppm compared to the original ^15N NMR ppm value of the parental complex.

[14] = Stability of platinum(II) complexes in PBS or PB, NMR; type: physicochemical; conditions: 1 mM, pH 7.4, 37 °C, 8 h incubation, no GSH
Procedure: as §8

[15] = test system: CT26 allografts; conditions: carboplatin 60 mg/kg i.v. once a week for two weeks, Figure S11
Procedure: days after first treatment
Balb/c mice. Mice were treated i.v. with the maximal tolerated dose of the respective drug and compared
to the solvent control. […] Oxaliplatin (9
mg/kg) was applied twice a week for two weeks. Tumor volume data are presented as means ± SEM. The
overall survival is depicted via a Kaplan –Meier curve.

[16] = test system: CT26 allografts; conditions: oxaliplatin 9 mg/kg i.v. twice a week for two weeks, Figure S11 ref Schueffl et al, Chem. Sci. 2021, 12, 12587-12599; cited from earlier work

Sequence of albumin (P02769 25-607): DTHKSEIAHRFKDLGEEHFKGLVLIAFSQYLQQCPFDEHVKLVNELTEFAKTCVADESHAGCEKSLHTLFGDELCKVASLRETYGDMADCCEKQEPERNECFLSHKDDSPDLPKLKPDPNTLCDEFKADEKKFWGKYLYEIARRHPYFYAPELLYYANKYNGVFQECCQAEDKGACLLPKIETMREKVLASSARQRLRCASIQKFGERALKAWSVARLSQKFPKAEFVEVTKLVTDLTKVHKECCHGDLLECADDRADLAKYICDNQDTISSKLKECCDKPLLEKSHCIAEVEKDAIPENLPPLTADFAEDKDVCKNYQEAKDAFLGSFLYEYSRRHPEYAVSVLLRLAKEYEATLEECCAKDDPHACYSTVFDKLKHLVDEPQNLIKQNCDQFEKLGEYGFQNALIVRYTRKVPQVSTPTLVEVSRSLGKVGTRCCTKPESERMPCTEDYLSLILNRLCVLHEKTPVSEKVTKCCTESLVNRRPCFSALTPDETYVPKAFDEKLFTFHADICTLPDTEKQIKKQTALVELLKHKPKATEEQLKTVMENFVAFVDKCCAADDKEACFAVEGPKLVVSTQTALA
T1 sequence (P00004 whole entry): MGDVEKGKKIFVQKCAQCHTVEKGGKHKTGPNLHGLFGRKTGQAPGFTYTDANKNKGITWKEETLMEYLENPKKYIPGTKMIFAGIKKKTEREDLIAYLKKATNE

With CC(=O)[O][Pt]([Cl])([Cl])[O]C(=O)NCCN1C(=O)CCC1=O.Cc1ccccn1.N [Pico-Succ, (OC-6-21)[Acetato(ammine)(dichlorido)(1-(2-isocyanatoethyl)pyrrolidine-2,5-dione)(2-methylpyridine)platinum(IV)]] the “time stable in absence of AA” value [1] was “over 6 h”, the IC50 [2] was 77.8 µM and the “original compound remaining after 5 min with 10 equiv GSH” value [3] was “only traces”. The IC50 [4] was greater than 100 µM, the “reduction with AA” value [5] was “immediate reduction” and the “original complex left after ∼5 min with 10 equiv AA” value ([6]; 10 equiv AA, first measurement ∼5 min) was “only traces”. The “complex reduced after ∼5 min with equimolar AA” value ([6]; equimolar AA, ∼5 min) was 90%, the IC50 [7] was 63.2 µM and the IC50 [8] was 30.9 µM. For the same molecule, the “intact platinum(IV) complex left after 1 h in FCS” value [9] was “only traces”, the IC50 [10] was greater than 100 µM and the “RF (resistance factor)” value [10] was greater than 1.6. For the same molecule, the “time to complete reduction with CytC” value [11] was 1 h, the IC50 [12] was 32.1 µM and the “reduction of IC50 values, 7 days vs 72 h” value ([12]; HCT116 and CT26, colony formation 7 days compared to MTT 72 h) was 2–3 fold.
For N.N.O=C([O-])C1(C(=O)[O-])CCC1.[Pt+2] [carboplatin], the “intact platinum(II) complex left after 8 h with GSH” value [13] was roughly 60%, the “complex left in 10% D2O/90% PBS” value [14] was greater than 95% and the IC50 [2] was 22.1 µM. The “response of CT26 allografts to carboplatin” value [15] was “highly carboplatin-resistant”, the IC50 [4] was 63.2 µM and the IC50 [7] was 32 µM. The IC50 [8] was 4.37 µM, the “IC50 in A2780/cis compared to A2780/wt” value [10] was 2.3 fold and the IC50 [10] was 74.9 µM. For the same molecule, the “RF (resistance factor)” value [10] was 2.3**** and the IC50 [12] was 7.41 µM.
With O=C1[O][Pt]2([NH][C@@H]3CCCC[C@H]3[NH]2)[O]C1=O [oxaliplatin] the “complex left in 10% D2O/90% PB” value [14] was greater than 90%, the “complex left in 10% D2O/90% PBS” value [14] was “readily degraded” and the IC50 [2] was 1.97 µM. For the same molecule, the IC50 [4] was 2.19 µM, the IC50 [7] was 0.63 µM and the IC50 [8] was 1.81 µM. The “response of CT26 allografts to oxaliplatin” value [16] was “only moderately responsive”, the “IC50 in A2780/cis compared to A2780/wt” value [10] was 1.1 fold and the IC50 [10] was 0.68 µM. For the same molecule, the “RF (resistance factor)” value [10] was 1.1^ns and the IC50 [12] was 1.46 µM.
